Measurements published in patent US20260184712A1, “Heterocyclic Compounds as ENT Inhibitors and Compounds for Use in the Treatment of Cancers” (iTeos Belgium SA, priority 2022, published 2026).
Read-outs that look alike come from different tables or passages of the source.

Biological target: T1, human ENT1 (Homo sapiens, UniProt Q99808)
T1 construct: JAR cells expressing ENT1 were purchased from ATCC; host or cells: JAR cells
T1 sequence (Q99808 1-456): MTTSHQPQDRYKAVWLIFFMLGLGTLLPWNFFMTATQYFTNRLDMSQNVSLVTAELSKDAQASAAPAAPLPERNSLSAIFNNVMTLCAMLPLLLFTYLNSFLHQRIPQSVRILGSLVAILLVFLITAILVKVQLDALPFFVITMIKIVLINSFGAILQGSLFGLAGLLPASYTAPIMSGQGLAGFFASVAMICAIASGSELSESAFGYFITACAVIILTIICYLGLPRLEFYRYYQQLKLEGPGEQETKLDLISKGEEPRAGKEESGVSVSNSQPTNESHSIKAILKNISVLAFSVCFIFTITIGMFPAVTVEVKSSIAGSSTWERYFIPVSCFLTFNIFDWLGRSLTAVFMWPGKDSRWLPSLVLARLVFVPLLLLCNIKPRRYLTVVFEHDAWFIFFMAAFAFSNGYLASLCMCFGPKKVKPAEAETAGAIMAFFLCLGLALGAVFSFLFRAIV
Assay: ENT1 binding assay (competition with Sahenta-DY647 on JAR cells)
Settings: IC50 categorized
Protocol: Compounds of the present disclosure were assayed to show ability to bind to human ENT1. The assay is a competition between a compound of interest and Sahenta-DY647, an ENT1 inhibitor that emits fluorescence (Ex=630 nm, Em=670 nm). By measuring the fluorescence at the end of the assay, one can assess the binding potency of the compounds tested. The compounds of the present disclosure were tested and compared to known ENT inhibitors, dilazep and NBMPR:
JAR cells expressing ENT1 were purchased from ATCC® (HTB-144TM). Cells were cultured in RPMI 1640 medium (LONZA®, #BE12-702F/U1) supplemented with 10% FBS (GIBCO®, #10270-106), 10 mM Hepes (LONZA®, #BE17-737E), 1 mM Sodium Pyruvate (LONZA®, #BE13-115E), and 2% Penicillin/Streptomycin (LONZA®, #DE17-603E) at 37° C. and 5% CO2.
The assay was conducted with the following buffer on the day of the assay: HBSS (LONZA®, #LO-527F) supplemented with 10 mM Hepes (LONZA®, #BE17-737E) and 0.1% BSA (Miltenyi®, #130-091-376).
JAR cells were resuspended in the described buffer. The compounds of interest and Sahenta-DY647 were diluted 200× with the described buffer.
A total of 50,000 cells were pre-incubated for 30 min at 4° C. with the compounds of the present disclosure before adding the corresponding amount of Sahenta-DY647 (100 nM) to the minimal concentration at Bmax and incubating for an additional 30 min at 4° C. The total volume of the reaction was 100 μL (50 μL of cells, 25 μL of the compounds of the present disclosure, and 25 μL of Sahenta-DY647) in a U-bottom 96 well plate (Greiner®, #650-180). The plates were washed 2× by centrifugation (4 min, 400 rcf at 4° C.) in the same buffer. Cells were re-suspended in 70 μL of the buffer and 50 μL was transferred to a Black 384 Optiplate (PerkinElmer®, #6007279). Fluorescence (Ex=630 nm, Em=670 nm) was acquired on a Spectramax i3x (Molecular Devices®).
Dose-response data from the compounds were analyzed with Graphpad Prism 9.1.1@software, using nonlinear regression applied to a sigmoidal dose-response model and the following equation:
Y=Bottom+(Top-Bottom)/(1+10^((LogIC50−X)*HillSlope)), with a shared bottom and top between the test reagent and dipyridamole.
Data from multiple experiments were compiled by taking the average pIC50 value for the reagent in question±the standard deviation (s.d.) and expressing it as an average IC50 value in nM.
The inhibitory effect of the test compound was expressed as a percentage of the inhibition of SAHENTA-DY647 binding.

[1] = competition with SAHENTA-DY647 binding, read-out: Binding Assay IC50

| Compound | IC50 [1] [nM] | IC50 (Binding Assay IC50, competition with SAHENTA-DY647 binding) [nM] |
| --- | --- | --- |
| CCOC(=O)CC[C@H]1O[C@@H](n2cnc3c(OCc4ccc([N+](=O)[O-])cc4)ncnc32)[C@H](O)[C@@H]1O [Compound 219] | > 500 |  |
| C[C@H]1O[C@@H](n2c(N)nc3c(OCc4ccccc4)ncnc32)[C@H](O)[C@@H]1O [Compound 355] | > 500 |  |
| Cc1c(N[C@@H]2O[C@H](C)[C@@H](O)[C@H]2O)ncnc1OCCc1ccc([N+](=O)[O-])cc1 [Compound 345] | > 500 |  |
| C[C@H]1O[C@@H](n2cnc3c(SCc4nc(-c5ccccc5Cl)no4)ncnc32)[C@H](O)[C@@H]1O [Compound 310] | > 500 |  |
| Cc1cn(C2OC(C)C(O)C2O)c2ncnc(SCc3ccc([N+](=O)[O-])cc3)c12 (single isomer, unassigned) [Compound 286] | > 500 |  |
| O=[N+]([O-])c1ccc(COc2ncnc3c2ncn3[C@@H]2O[C@H](COCCN3CCCC3)[C@@H](O)[C@H]2O)cc1 [Compound 240] | > 500 |  |
| C[C@H]1O[C@@H](n2cnc3c(C(=O)NCc4ccc(C(F)(F)F)cc4)ncnc32)[C@H](O)[C@@H]1O [Compound 298] | > 500 |  |
| C[C@H]1O[C@@H](n2cnc3c(NCc4ccc(-c5ncon5)cc4)ncnc32)[C@H](O)[C@@H]1O [Compound 255] | > 500 |  |
| C[C@H]1O[C@@H](n2cnc3c(OCCc4cc(F)c(C#N)c(F)c4)ncnc32)[C@H](O)[C@@H]1O [Compound 223] | > 500 |  |
| C[C@H]1O[C@@H](n2cnc3c(OCc4ccc(OC(F)(F)F)c(Cl)c4)ncnc32)[C@H](O)[C@@H]1O [Compound 234] | > 500 |  |
| CC(CCO)Nc1nc2c(OCc3ccc(OC(F)(F)F)cc3)ncnc2n1[C@@H]1O[C@H](C)[C@@H](O)[C@H]1O (stereo partly shown) [Compound 99] | 1 to 20 |  |
| Cc1nc2ccc(COc3ncnc4c3ncn4[C@@H]3O[C@H](C)[C@@H](O)[C@H]3O)cc2o1 [Compound 338] | > 500 |  |
| NC(=O)[C@H]1O[C@@H](n2cnc3c(SCc4ccc([N+](=O)[O-])cc4)ncnc32)[C@H](O)[C@@H]1O [Compound 243] | > 500 |  |
| C[C@H]1O[C@@H](n2cnc3c(C(=O)NCc4ccc(OC(F)(F)F)cc4)ncnc32)[C@H](O)[C@@H]1O [Compound 295] | > 500 |  |
| C[C@H]1O[C@@H](n2cnc3c(OCc4ccc5c(c4)OCCO5)ncnc32)[C@H](O)[C@@H]1O [Compound 363] | > 500 |  |
| C[C@H]1O[C@@H](n2c(NC3CC3)nc3c(OCc4ccc(C#N)cc4)ncnc32)[C@H](O)[C@@H]1O [Compound 39] | 1 to 20 |  |
| C[C@H]1O[C@@H](n2cnc3c(OC4CCc5ccc([N+](=O)[O-])cc5C4)ncnc32)[C@H](O)[C@@H]1O (stereo partly shown) [Compound 228] | > 500 |  |
| C[C@H]1O[C@@H](n2cnc3c(OCc4cccc(OC(F)F)c4)ncnc32)[C@H](O)[C@@H]1O [Compound 246] | > 500 |  |
| CC(Oc1ncnc2c1ncn2[C@@H]1O[C@H](C)[C@@H](O)[C@H]1O)c1ccc(OC(F)F)cc1 (stereo partly shown) [Compound 263] | > 500 |  |
| Cc1cc(C)c(COc2ncnc3c2ncn3[C@@H]2O[C@H](C)[C@@H](O)[C@H]2O)c(C)c1 [Compound 340] | > 500 |  |
| C[C@H]1O[C@@H](n2c(N[C@H]3CC[C@@](C)(O)CC3)nc3c(OCc4ccc(C#N)cc4)ncnc32)[C@H](O)[C@@H]1O [Compound 131] | 1 to 20 |  |
| C[C@H]1O[C@@H](n2cnc3c(OCc4ccc(-n5cncn5)cc4)ncnc32)[C@H](O)[C@@H]1O [Compound 314] | > 500 |  |
| CNc1nc2c(OCc3ccccc3)ncnc2n1[C@@H]1O[C@H](C)[C@@H](O)[C@H]1O [Compound 264] | > 500 |  |
| C[C@H]1O[C@@H](n2cnc3c(OCc4ccc([N+](=O)[O-])cc4)nc(F)nc32)[C@H](O)[C@@H]1O [Compound 225] | > 500 |  |
| C[C@H]1O[C@@H](n2cnc3c(N[C@H]4C[C@@H]4c4ccc(Cl)cc4)ncnc32)[C@H](O)[C@@H]1O [Compound 327] | > 500 |  |

| Compound | IC50 [1] [nM] | IC50 (Binding Assay IC50, competition with SAHENTA-DY647 binding) [nM] |
| --- | --- | --- |
| C[C@H]1O[C@@H](n2cnc3c(OCCc4cnc(C#N)c(F)c4)ncnc32)[C@H](O)[C@@H]1O [Compound 265] | > 500 |  |
| C[C@H]1O[C@@H](n2c(N)nc3c(OCc4ccc([N+](=O)[O-])cc4)ncnc32)[C@H](O)[C@@H]1O [Compound 4] | 20 to 500 |  |
| C[C@H]1O[C@@H](n2cnc3c(NCc4ccc(S(C)(=O)=O)cc4)ncnc32)[C@H](O)[C@@H]1O [Compound 277] | > 500 |  |
| C[C@H]1O[C@@H](n2cnc3c(SCc4cccc(S(N)(=O)=O)c4)ncnc32)[C@H](O)[C@@H]1O [Compound 273] | > 500 |  |
| C[C@H]1O[C@@H](n2cnc3c(OCCc4cccc([N+](=O)[O-])c4)ncnc32)[C@H](O)[C@@H]1O [Compound 275] | > 500 |  |
| Cc1ccc(COc2ncnc3c2ncn3[C@@H]2O[C@H](C)[C@@H](O)[C@H]2O)cc1 [Compound 211] | 20 to 500 |  |
| C[C@H]1O[C@@H](n2cnc3c(OCc4ccc5cnn(C)c5c4)ncnc32)[C@H](O)[C@@H]1O [Compound 333] | > 500 |  |
| C[C@H]1O[C@@H](n2cnc3c(NCc4ccc(N5CCCC5=O)cc4)ncnc32)[C@H](O)[C@@H]1O [Compound 387] | > 500 |  |
| C[C@H]1O[C@@H](n2cnc3c(OCc4ccc(OCCF)cc4)ncnc32)[C@H](O)[C@@H]1O [Compound 236] | > 500 |  |
| C[C@H]1O[C@@H](n2cnc3c(OCCc4ccc(CF)cc4)ncnc32)[C@H](O)[C@@H]1O [Compound 294] | > 500 |  |
| C[C@H]1O[C@@H](n2c(NC3CCCC3)nc3c(OCc4ccc(C(F)F)nc4)ncnc32)[C@H](O)[C@@H]1O [Compound 95] | 1 to 20 |  |
| C[C@H]1O[C@@H](n2c(NCC3CCOCC3)nc3c(OCc4ccc(Cl)cc4)ncnc32)[C@H](O)[C@@H]1O [Compound 111] | 20 to 500 |  |
| C[C@H]1O[C@@H](n2c(NC3CCS(=O)(=O)CC3)nc3c(N4CCc5ccc([N+](=O)[O-])cc5C4)ncnc32)[C@H](O)[C@@H]1O [Compound 136] | < 1 |  |
| C[C@H]1O[C@@H](n2cnc3c(OCCc4ccc(C(F)F)nc4)ncnc32)[C@H](O)[C@@H]1O [Compound 400] | > 500 |  |
| C[C@H]1O[C@@H](n2cnc3c(COc4ccc(C#N)cc4)ncnc32)[C@H](O)[C@@H]1O [Compound 280] |  | > 500 |
| C[C@H]1O[C@@H](n2cnc3c(NCc4cccc(-n5cccn5)c4)ncnc32)[C@H](O)[C@@H]1O [Compound 352] | > 500 |  |
| C[C@H]1O[C@@H](n2c(N[C@H]3CCC(F)(F)C3)nc3c(OCc4ccc([N+](=O)[O-])cc4)ncnc32)[C@H](O)[C@@H]1O [Compound 84] | < 1 |  |
| CC(C)Oc1cccc(CSc2ncnc3c2ncn3[C@@H]2O[C@H](C)[C@@H](O)[C@H]2O)c1 [Compound 365] | > 500 |  |
| C[C@H]1O[C@@H](n2cnc3c(SCc4cccc(OC5CC5)c4)ncnc32)[C@H](O)[C@@H]1O [Compound 306] | > 500 |  |
| C[C@H]1O[C@@H](n2cnc3c(NCc4cccc(OC(F)(F)F)c4)ncnc32)[C@H](O)[C@@H]1O [Compound 335] | > 500 |  |
| C[C@H]1O[C@@H](n2c(N[C@H]3CC[C@@](C)(O)CC3)nc3c(OCc4ccc(OC(F)F)cc4)ncnc32)[C@H](O)[C@@H]1O [Compound 122] | 1 to 20 |  |
| C[C@H]1O[C@@H](n2cnc3c(OCc4ccc5c(c4)OCC5)ncnc32)[C@H](O)[C@@H]1O [Compound 313] | > 500 |  |
| C[C@H]1O[C@@H](n2cnc3c(OCCc4ccc(OC(F)F)cc4)ncnc32)[C@H](O)[C@@H]1O [Compound 276] | > 500 |  |
| C[C@H]1O[C@@H](n2c(N[C@H]3CC[C@](C)(O)CC3)nc3c(OCc4ccc(C(F)(F)F)cc4)ncnc32)[C@H](O)[C@@H]1O [Compound 125] | 1 to 20 |  |
